Patent publication US5416191A, “Bradykinin antagonists” (Cortech, Inc., priority 1993, dated 1995)
Read-outs that look alike come from different tables or passages of the source. Peptide text beside a SMILES is read from it.

Tests used:
[1] = molecular target: T1, bradykinin receptor of the B2 class (rabbit jugular vein) (Oryctolagus cuniculus, UniProt Q28642); test: Rabbit jugular vein (RJV) in vitro, antagonism of bradykinin; settings: for RJV % REC: recovery after wash
T1 construct: from tissue; host or cells: rabbit jugular vein
T1 sequence (Q28642 1-367): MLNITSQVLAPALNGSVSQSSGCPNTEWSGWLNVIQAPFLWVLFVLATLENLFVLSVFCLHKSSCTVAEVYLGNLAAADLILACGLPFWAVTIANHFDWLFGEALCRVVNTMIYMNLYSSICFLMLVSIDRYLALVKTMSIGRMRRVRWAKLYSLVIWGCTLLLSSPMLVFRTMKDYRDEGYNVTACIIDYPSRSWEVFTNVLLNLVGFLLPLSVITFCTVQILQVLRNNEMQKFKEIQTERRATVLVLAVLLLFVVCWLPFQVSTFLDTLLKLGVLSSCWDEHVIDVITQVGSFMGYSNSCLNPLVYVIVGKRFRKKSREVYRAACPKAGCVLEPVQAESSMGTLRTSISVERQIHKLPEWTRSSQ
Procedure: Thus in vitro studies were performed on standard assay systems, namely, guinea-pig ileum (GPI), rat uterus (RU) and rabbit jugular vein (RJV). […] The potency of each compound was assessed as a pA2 value according to the method of Arunlakshana & Schild, Br. J. Pharmacol. Chemother., 14:48-58 (1959). The PA2 can be defined as the negative logarithm of the molar concentration of the antagonist in the presence of which the potency of the agonist is reduced two-fold, i.e. twice the amount of agonist is required to produce a given response in the presence of, than in the absence of, the antagonist. A high potency of antagonism is indicated by a high PA2 value, i.e., a low concentration of antagonist is effective.
The percentage recovery (% Rec) was also determined for compounds with respect to each assay. Percentage recovery is a measure of the duration of action, the lower the percentage recovery value, the greater the duration of action of the compound.

[2] = molecular target: T2, bradykinin receptor of the B2 class (guinea-pig ileum) (Cavia porcellus, UniProt O70526)
T2 sequence (O70526 1-372): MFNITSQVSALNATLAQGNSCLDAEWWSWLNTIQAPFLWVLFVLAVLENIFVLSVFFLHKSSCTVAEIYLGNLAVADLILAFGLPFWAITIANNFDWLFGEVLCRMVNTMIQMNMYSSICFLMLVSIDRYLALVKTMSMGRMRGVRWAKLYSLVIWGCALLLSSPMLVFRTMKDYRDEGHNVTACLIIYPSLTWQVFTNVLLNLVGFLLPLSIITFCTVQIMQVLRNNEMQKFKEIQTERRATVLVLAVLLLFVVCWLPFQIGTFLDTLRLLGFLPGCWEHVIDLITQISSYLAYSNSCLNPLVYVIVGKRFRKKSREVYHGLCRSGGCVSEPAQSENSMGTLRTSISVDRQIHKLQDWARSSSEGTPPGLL

[3] = molecular target: T2, bradykinin receptor of the B2 class (guinea-pig ileum); remark: listed apart in the source
[4] = tested on: bradykinin-induced vascular permeability; test: Rabbit skin vascular permeability (Evans Blue, intradermal bradykinin); assay type: in vivo
Procedure: In these experiments, two protocols were used. The first protocol used the classical assay in which bradykinin was injected intradermally either alone or in combination with the compound under investigation following intravenous administration of Evans Blue dye. Thirty minutes after intradermal injection of bradykinin with and without the compound, the animal was killed, its skin removed and the area of "blueing" (i.e., vascular permeability or edema) measured.
The second protocol involved pre-injecting the test compound either 15 or 30 minutes before injecting bradykinin in the same site. The results are shown in FIGS. 2B and 2C, respectively.

[5] = tested on: bradykinin-induced hypotension; test: Bradykinin-induced hypotension in the anesthetized rat; assay type: in vivo; settings: intravenous infusion 25 μg kg^-1 min^-1; bradykinin 4×10^-9 moles; FIG. 3
[6] = molecular target: T3, bradykinin receptor of the B2 class (rat uterus) (Rattus norvegicus, UniProt P25023); test: Rat uterus (RU) in vitro, antagonism of bradykinin
T3 construct: concentration effect curves to bradykinin (BK) on rat uterus in vitro; from tissue; host or cells: rat uterus
T3 sequence (P25023 1-396): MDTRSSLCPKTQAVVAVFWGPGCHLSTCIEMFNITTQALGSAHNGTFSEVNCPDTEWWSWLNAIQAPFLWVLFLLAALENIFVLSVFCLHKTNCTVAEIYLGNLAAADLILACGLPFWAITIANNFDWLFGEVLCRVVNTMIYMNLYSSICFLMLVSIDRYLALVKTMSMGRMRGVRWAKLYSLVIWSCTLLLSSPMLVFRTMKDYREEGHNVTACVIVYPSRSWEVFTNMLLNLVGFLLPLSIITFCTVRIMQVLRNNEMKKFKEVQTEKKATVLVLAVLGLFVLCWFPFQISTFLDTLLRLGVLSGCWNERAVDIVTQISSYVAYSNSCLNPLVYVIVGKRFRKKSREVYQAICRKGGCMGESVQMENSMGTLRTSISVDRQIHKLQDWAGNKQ
Summary of the method: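 Isolated rat uterus; bradykinin antagonism expressed as pA2, the negative log molar antagonist concentration that halves agonist potency. After the highest antagonist concentration, tissues were washed extensively and percent recovery was recorded.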

CC(C)C[C@H](NC(=O)[C@@H](Cc1ccccc1)NC(=O)[C@H](CS)NC(=O)[C@H](Cc1ccccc1)NC(=O)CNC(=O)[C@@H]1C[C@@H](O)CN1C(=O)[C@@H]1CCCN1C(=O)[C@H](CCCNC(=N)N)NC(=O)[C@H](N)CCCNC(=N)N)C(=O)N[C@@H](CCCNC(=N)N)C(=O)O [CP-0126] (HELM PEPTIDE1{[dR].R.P.[Hyp].G.F.C.[dF].L.R}$$$$V2.0)
Kb [1]: 1.58 nM | RJV % REC ([1]; Table A): 60% | Kb [2]: 501 nM | Kb ([2]; GPI pA2, Table A): 398 nM | GPI pA2 [3]: ≈ 6.3 | Inhibition of bradykinin-induced vascular permeability, co-injected ([4]; intradermal, injected in combination with bradykinin, FIG. 2A): more potent than CP-0127 | Inhibition of bradykinin-induced vascular permeability, pre-injected ([4]; pre-injected 15 or 30 minutes before bradykinin in the same site, FIGS. 2B/2C): significantly less effective | Inhibition of hypotensive response to bradykinin [5]: almost totally ineffective | Recovery of bradykinin concentration effect curve after washing ([6]; rat uterus, after highest antagonist concentration, FIGS. 1A/1B): almost returns to that seen in the control

CC(C)C[C@H](NC(=O)[C@@H](Cc1ccccc1)NC(=O)[C@H](CSC1CC(=O)N(CCCCCCN2C(=O)CC(SC[C@H](NC(=O)[C@H](Cc3ccccc3)NC(=O)CNC(=O)[C@@H]3C[C@@H](O)CN3C(=O)[C@@H]3CCCN3C(=O)[C@H](CCCNC(=N)N)NC(=O)[C@H](N)CCCNC(=N)N)C(=O)N[C@H](Cc3ccccc3)C(=O)N[C@@H](CC(C)C)C(=O)N[C@@H](CCCNC(=N)N)C(=O)O)C2=O)C1=O)NC(=O)[C@H](Cc1ccccc1)NC(=O)CNC(=O)[C@@H]1C[C@@H](O)CN1C(=O)[C@@H]1CCCN1C(=O)[C@H](CCCNC(=N)N)NC(=O)[C@H](N)CCCNC(=N)N)C(=O)N[C@@H](CCCNC(=N)N)C(=O)O (stereo partly shown) [CP-0127] (HELM PEPTIDE1{[dR].R.P.[Hyp].G.F.C.[dF].L.R}|PEPTIDE2{[dR].R.P.[Hyp].G.F.C.[dF].L.R}|CHEM1{[O=C1CC([*:1])C(=O)N1CCCCCCN1C(=O)CC([*:2])C1=O]}$PEPTIDE1,CHEM1,7:R3-1:R1|PEPTIDE2,CHEM1,7:R3-1:R2$$$V2.0)
Kb ([1]; Table A, read-out: RJV pA2 (converted)): 0.0316 nM | RJV % REC ([1]; Table A): 10% | Kb ([2]; pA2 GUINEA PIG ILEUM, Table B, Cys position scan, monomers and BMH dimers): ~20 nM | GPI pA2 ([3]; Table A): 7.7 | GPI % REC ([3]; Table A, recovery after wash, lower = longer duration): 100% | RU % REC ([6]; Table A, recovery after wash): 50% | % REC DIMER ([6]; Table C, rat uterus): 50% | pA2 DIMER ([6]; Table C, rat uterus): 8.8 | % REC (40 MIN) ([6]; Table D, 40 min): 50% | pA2 (UTERUS) ([6]; Table D, effect of linker length): 8.8 | RAT UTERUS % RECOVERED ([6]; Table E): 50% | RAT UTERUS pA2 ([6]; Table E): 8.8 | % RECOVERY ([6]; Table F, rat uterus): 50%
